Entries after “also recorded” stand apart in the source; their conditions may differ. Counter-ions that a name gives are not always drawn.
Legend:
[1] = system: ectocervical (Ect) epithelial cells
[2] = system: Ect cells; assay: Cytokine release in transwells (FlowCytomix bead assay); assay type: cell-based, human; conditions: for IL-6 secretion induced by TLR3 agonist PIC / IL-8 secretion induced by TLR3 agonist PIC / IL-1RA production: 0.3% acid pH 3.9 or media acidified to pH 3.9 with HCl; for IL-1RA production: absence or presence of PIC
Experimental: (§1) Cytokines were measured using FlowCytomix assays, utilising the basic reagents kit, in conjunction with simplex kits for IL-6, IL-8 and IL-1RA (eBiosciences).
(§2) Test Procedure • 1. Calculate required volumes of reagents and make standards, bead mixtures and biotin-conjugate as described above. • 2. Add 15 μL of either standard, sample or blank (1× assay buffer) to appropriately labelled tubes. • 3. Add 15 μL of prepared bead mixture to each tube. • 4. Add 30 μL of biotin-conjugate mix to each tube, mix tubes well and incubate at room temp for 2 hours. Protect samples from light with foil. • 5. Prepare Streptavidin-PE mix. • 6. Add 0.6 ml 1× assay buffer to each tube and centrifuge at 200 g for 5 min. • 7. Discard s/n, leaving approx. 100 μL. Repeat for a total of 2 washes. • 8. Add 30 μL of Streptavidin-PE mix to all tubes, mix well and incubate at room temp for 1 hour (protected from light). • 9. Add 0.6 ml 1× assay buffer to each tube and centrifuge at 200 g for 5 min. • 10. Discard s/n, leaving approx. 100 μL. Repeat for a total of 2 washes. • 11. Discard s/n from final wash, leaving 100-200 μL of buffer. Analyse samples on the flow cytometer within 24 hours (preferable the same day as the experiment).
(§3) The following concentrations of TLR agonists (Table 3.) have been used to activate FGT cells either alone of added with LA-containing media for 18-24 hours.

[3] = system: endocervical (End) epithelial cells
[4] = system: vaginal (VK2) epithelial cells
[5] = system: Ect1 E6/E7 ectocervical epithelial cell line; assay: Cyto/chemokine analysis (Procartaplex, Luminex) after 1 hour treatment; assay type: cell-based, human; conditions: Ect; for IL-1RA production from cells stimulated with PIC, acid alone / PIC-induced cytokine production, acid alone: 0.03% benzoic acid or 0.15% citric acid; for PIC-induced cytokine production, acid alone: compared with low pH alone (HCl); for LA-induced production of IL-1RA in the presence of the acid: 0.3% LA with 0.03% benzoic acid or 0.15% citric acid; for IL-1RA production, no TLR agonist / IL-6 basal production, no TLR agonist: 1 hour treatment at pH 3.9 (acids at various concentrations, gels diluted to about 0.3% LA), supernatant after 18 hours; for other immune mediators (IL-8, MIP3α, TNF, IL-1B, RANTES), no TLR agonist: 1 hour treatment at pH 3.9, not shown; for LA inhibition of PIC-induced IL-8, IL-6 and TNF in the presence of the acid: PIC and 0.3% LA with 0.03% benzoic acid or 0.15% citric acid
[6] = system: primary ectocervical cells; assay: Cytokine/chemokine production by primary cells in transwells; assay type: cell-based, human; conditions: 0.3% LA, PIC or both
Text: Culture of Human Primary Ectocervical Cells in Transwells. To further qualify the data in Example 9, we repeated the experiment with primary ectocervical cells.

[7] = system: human female reproductive tissue; conditions: low pH; cited from earlier work
[8] = system: VK2 cells; assay: Cytokine release in transwells (FlowCytomix bead assay); assay type: cell-based, human
Experimental: (§4) An analysis was performed to determine if physiologic noncytotoxic concentrations of L-LA alter the release of immune modulators by VK2, End and Ect cells by incubating cells in transwells with L-LA for 24 h at 37° C. in serum free keratinocyte medium and harvesting supernatants (from the apical chamber) for release of immune modulators.
as §1, §2, §3

[9] = system: End cells; assay: as above; assay type: cell-based, human
Experimental: as §4, §1, §2, §3

[10] = system: Ect cells; assay: as above; assay type: cell-based, human; conditions: 0.3%
[11] = system: epithelial cells from the lower female reproductive tract; assay: Cytotoxicity in a standard plate format; assay type: cell-based, human; conditions: 0.4% L-lactic acid, standard plate format (data not shown)
[12] = system: Ect1 E6/E7 ectocervical epithelial cell line; assay: Viability (MTS) 18 hours after 1 hour treatment; conditions: range of concentrations, pH 3.9, 1 hour incubation, read 18 hours later
Experimental: The human ectocervical epithelial cell line Ect1 E6/E7 was utilized for these experiments. Cells were cultured and treated in serum free keratinocyte media (SFKM) containing supplements as per ATCC recommendations. Cells were seeded in 6 mm transwell inserts at a density of 100,000 cells per well, and cultured for 7 days prior to treatment. […] Cytokine-containing supernatants were collected and stored at −80° C. for future analysis and cell viability assessed via MTS assay as per manufacturer's recommendations.
NOTE: The pH of all treatment media containing gels/acids was adjusted to pH 3.9 (to match that of 0.3% LA) prior to treatment. This was performed to ensure that a similar concentration of protonated LA, the active form of LA, was compared. A pH control (media adjusted to pH 3.9 with HCl) was included to determine the effect of low pH alone.
Due to the poor buffering capacity of HCl, treatments containing HCl were refreshed every 20 min during the 1 hour treatment time to ensure the low pH of the treatment media was maintained.

[13] = 0.3% acid (pH 3.9) or low pH alone (pH 3.9 with HCl)
[14] = PIC 1 hour with 0.3% LA or gels diluted to about 0.3% LA, pH 3.9
[15] = 0.3% in apical medium, pH 3.9, 24 h
[16] = 0.3%, pH 3.9, absence or presence of PIC
[17] = added to the apical medium in the transwell system, 24 hr

## Cl [HCl, Hydrochloric acid, reference compound]
[1]; [13]
  effect on cell viability: non-toxic
[2]
  IL-6 secretion induced by TLR3 agonist PIC: neither neutralised L-LA nor HCl acidified media had any significant effect
  IL-8 secretion induced by TLR3 agonist PIC: neither neutralised L-LA nor HCl acidified media had any significant effect
  IL-1RA production: neither neutralised L-LA nor HCl acidified media had any significant effect
[3]; [13]
  effect on cell viability: non-toxic
[4]; [13]
  effect on cell viability: non-toxic

## CC(O)C(=O)O (centres unmarked) [LA, lactic acid]
[5]; 1 hour treatment, levels below the limit of detection (data not shown)
  IL-1β production, no TLR agonist: small increase
[5]; [14]
  PIC-induced production of IL-6: inhibits
  PIC-induced production of IL-8: inhibits
  PIC-induced production of TNF: inhibits
[6]
  production of IL-1RA, IL-6, IL-8, TNFα, RANTES and MIP3α: trend similar to that of LA treatment of cells lines
[7]
  inflammatory activity on human female reproductive tissue: pro-inflammatory

## O=C(O)CC(O)(CC(=O)O)C(=O)O [citric acid, Citric acid]
[5]
  IL-1RA production from cells stimulated with PIC, acid alone: neither citric nor benzoic acid altered
  PIC-induced cytokine production, acid alone: did not appear to alter
  LA-induced production of IL-1RA in the presence of the acid: largely preserved
  IL-1RA production, no TLR agonist: Neither acid was associated with an altered expression
  IL-6 basal production, no TLR agonist: Neither acid was associated with an altered expression
  other immune mediators (IL-8, MIP3α, TNF, IL-1B, RANTES), no TLR agonist: similarly unaltered
  LA inhibition of PIC-induced IL-8, IL-6 and TNF in the presence of the acid: persists
[5]; 0.15% citric acid, compared to cells stimulated with LA and PIC
  IL-1RA production, acid in combination with PIC and LA: reduced production

## C[C@H](O)C(=O)O [L-LA, L-(+)-lactic acid]
[8]; [15]
  IL-6 secretion induced by TLR3 agonist PIC: reduces secretion
  IL-8 secretion induced by TLR3 agonist PIC: reduces secretion
[8]; 0.3%, pH 3.9
  IL-1RA production with Pam3Ck (TLR2) and lipopolysaccharide (TLR4): same result
[8]; [16]
  IL-1RA production: induces IL-1RA production
[9]; [15]
  IL-6 secretion induced by TLR3 agonist PIC: reduces secretion
  IL-8 secretion induced by TLR3 agonist PIC: reduces secretion
[9]; 0.3%, pH 3.9
  IL-1RA production with Pam3Ck (TLR2) and lipopolysaccharide (TLR4): same result
[9]; [16]
  IL-1RA production: induces IL-1RA production
[1]; [17]
  L-lactic acid concentrations tolerated: up to 0.4%
[10]
  MIP3α production induced by TLR agonist (PIC): reduced the production
  RANTES production induced by TLR agonist (PIC): reduced the production
  TNFα production induced by TLR agonist (PIC): reduced the production
[11]
  cytotoxicity in standard plate format: highly cytotoxic
[2]
  IL-6 secretion induced by TLR3 agonist PIC: reduce secretion; also recorded: reduced the production
  IL-8 secretion induced by TLR3 agonist PIC: reduce secretion; also recorded: reduced the production
  IL-1RA production: induces IL-1RA production; also recorded: increase IL-1RA production; also recorded: significant increase
[2]; 0.3% at pH 7.4
  decreasing levels of proinflammatory cytokines (IL-6, IL-8) induced by PIC, neutralised: neither neutralised L-LA nor HCl acidified media had any significant effect
  increasing the production of IL-1RA, neutralised: neither neutralised L-LA nor HCl acidified media had any significant effect
[2]; 0.3% with or without PIC for 0.5, 1 or 18 hrs, cytokines measured at 18 hrs
  treatment time sufficient for the effects on IL-1RA, IL-6, IL-8, TNFα, RANTES and MIP3α: 30 min
[2]; 0.3%, pH 3.9
  IL-1RA production with Pam3Ck (TLR2) and lipopolysaccharide (TLR4): same result
[3]; [17]
  L-lactic acid concentrations tolerated: up to 0.4%
[4]; [17]
  L-lactic acid concentrations tolerated: up to 0.4%

## C[C@@H](O)C(=O)O [D-LA, D-(−)-lactic acid]
[2]
  IL-6 secretion induced by TLR3 agonist PIC: reduce secretion
  IL-8 secretion induced by TLR3 agonist PIC: reduce secretion
  IL-1RA production: increase IL-1RA production

## O=C(O)c1ccccc1 [benzoic acid, Benzoic acid]
[5]
  IL-1RA production from cells stimulated with PIC, acid alone: neither citric nor benzoic acid altered
  PIC-induced cytokine production, acid alone: did not appear to alter
  LA-induced production of IL-1RA in the presence of the acid: largely preserved
  IL-1RA production, no TLR agonist: Neither acid was associated with an altered expression
  IL-6 basal production, no TLR agonist: Neither acid was associated with an altered expression
  other immune mediators (IL-8, MIP3α, TNF, IL-1B, RANTES), no TLR agonist: similarly unaltered
  LA inhibition of PIC-induced IL-8, IL-6 and TNF in the presence of the acid: persists
[12]
  viability of Ect cells, acid excipients: Neither benzoic nor citric acid had any significant effect

From US9801839B2, “Therapeutic method” (Macfarlane Burnet Institute for Medical Research and Public …, priority 2014, dated 2017)
